≈ marks a conversion by molar mass, not a printed value.
What was measured:
Assay type in all cases: cell-based
[1] = system: Streptococcus pneumoniae 1095; conditions: Streptococcus pneumoniae 1095; microtiter broth dilution
Method in brief: (§1)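 Susceptibility testing used microtiter trays with broth dilution. Values are minimum inhibitory concentrations interpreted under NCCLS guidance (M100-S14).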

[2] = system: Streptococcus pneumoniae 1175; conditions: Streptococcus pneumoniae 1175; microtiter broth dilution
Method in brief: as §1

[3] = system: Haemophilus influenzae 1218; assay: MIC, microtiter broth dilution (NCCLS M100-S14), H. influenzae 1218 (susceptible); conditions: Haemophilus influenzae 1218
Method in brief: as §1

[4] = system: Streptococcus pneumoniae 1016; assay: MIC, microtiter broth dilution (NCCLS M100-S14), S. pneumoniae 1016 (susceptible); conditions: Streptococcus pneumoniae 1016
Method in brief: as §1

[5] = system: Streptococcus pyogenes 1079; assay: MIC, microtiter broth dilution (NCCLS M100-S14), S. pyogenes 1079 (ermB); conditions: Streptococcus pyogenes 1079
Method in brief: as §1

Row | SMILES | MIC S. pneumo. 1095 [1] [µg/mL] | MIC S. pneumo. 1175 [2] [µg/mL] | MIC H. influenzae 1218 [3] [µg/mL] | MIC S. pneumo. 1016 [4] [µg/mL] | MIC S. pyogenes 1079 [5] [µg/mL]
1 | CCC1OC(=O)C(C)C(=O)C(C)C(OC2OC(C)CC(N(C)C)C2O)C(C)(OC)CC(C)C(=O)C(C)C2N(C3CN(C(=O)c4ccc(-c5noc(C)n5)cc4)C3)C(=O)OC12C (stereo not shown) [Example 2.12] | 2 (≈ 2.34 µM) | 0.25 (≈ 0.293 µM) | 32 (≈ 37.5 µM) | <0.06 | >64.00
2 | CCC1OC(=O)C(C)C(=O)C(C)C(OC2OC(C)CC(N(C)C)C2O)C(C)(OC)CC(C)C(=O)C(C)C2N(C3CN(C(=O)c4ccc(-n5cccn5)cc4)C3)C(=O)OC12C (stereo not shown) [Example 2.13] | 2 (≈ 2.39 µM) | 0.12 (≈ 0.143 µM) | 8 (≈ 9.55 µM) | <0.06 | >64.00
3 | CCC1OC(=O)C(C)C(=O)C(C)C(OC2OC(C)CC(N(C)C)C2O)C(C)(OC)CC(C)C(=O)C(C)C2N(C3CN(C(=O)c4ccc(-n5ccnc5)cc4)C3)C(=O)OC12C (stereo not shown) [Example 2.14] | 2 (≈ 2.39 µM) | 0.25 (≈ 0.298 µM) | 4 (≈ 4.77 µM) | <0.06 | >64.00
4 | CCC1OC(=O)C(C)C(=O)C(C)C(OC2OC(C)CC(N(C)C)C2O)C(C)(OC)CC(C)C(=O)C(C)C2N(C3CN(C(=O)c4cccc(-c5noc(C)n5)c4)C3)C(=O)OC12C (stereo not shown) [Example 2.16, 3-(5-methyl-1,2,4-oxadiazol-3-yl)benzoyl] | 16 (≈ 18.7 µM) | 0.25 (≈ 0.293 µM) | 64 (≈ 74.9 µM) | <0.06 | >64.00
5 | CCC1OC(=O)C(C)C(=O)C(C)C(OC2OC(C)CC(N(C)C)C2O)C(C)(OC)CC(C)C(=O)C(C)C2N(C3CN(C(=O)c4cccc(-n5nc(C)cc5C)c4)C3)C(=O)OC12C (stereo not shown) [Example 2.17, 3-(3,5-dimethyl-1H-pyrazol-1-yl)benzoyl] | >64.00 | 0.25 (≈ 0.289 µM) | >64.00 | <0.06 | >64.00
6 | CCC1OC(=O)C(C)C(=O)C(C)C(OC2OC(C)CC(N(C)C)C2O)C(C)(OC)CC(C)C(=O)C(C)C2N(C3CN(C(=O)c4ccnc(-c5noc(C)n5)c4)C3)C(=O)OC12C (stereo not shown) [Example 2.18] | >64.00 | 0.5 (≈ 0.585 µM) | 32 (≈ 37.4 µM) | <0.06 | >64.00
7 | CCC1OC(=O)C(C)C(=O)C(C)C(OC2OC(C)CC(N(C)C)C2O)C(C)(OC)CC(C)C(=O)C(C)C2N(C3CN(C(=O)c4ccnc(-n5cnnn5)c4)C3)C(=O)OC12C (stereo not shown) [Example 2.19, 2-(1H-tetrazol-1-yl)pyridine-4-carboxyl] | >64.00 | 0.5 (≈ 0.595 µM) | 32 (≈ 38.1 µM) | <0.06 | >64.00
8 | CCC1OC(=O)C(C)C(=O)C(C)C(OC2OC(C)CC(N(C)C)C2O)C(C)(OC)CC(C)C(=O)C(C)C2N(C3CN(C(=O)c4ccc(-n5cccn5)nc4)C3)C(=O)OC12C (stereo not shown) [Example 2.20] | 1 (≈ 1.19 µM) | 0.12 (≈ 0.143 µM) | 16 (≈ 19.1 µM) | <0.06 | >64.00
9 | CCC1OC(=O)C(C)C(=O)C(C)C(OC2OC(C)CC(N(C)C)C2O)C(C)(OC)CC(C)C(=O)C(C)C2N(C3CN(S(=O)(=O)c4cccnc4)C3)C(=O)OC12C (stereo not shown) [Example 3.01, 3-descladinosyl-11,12-dideoxy-6-O-methyl-3-oxo-12,11-(oxycarbonyl-(1-(pyridine-3-sulfonyl)-azetidin-3-yl)-imino)-erythromycin A] | <0.06 | <0.06 | 0.25 (≈ 0.309 µM) | <0.06 | 4 (≈ 4.94 µM)
10 | CCC1OC(=O)C(C)C(=O)C(C)C(OC2OC(C)CC(N(C)C)C2O)C(C)(OC)CC(C)C(=O)C(C)C2N(C3CN(S(=O)(=O)c4cccc5ccccc45)C3)C(=O)OC12C (stereo not shown) [Example 3.02, 3-descladinosyl-11,12-dideoxy-6-O-methyl-3-oxo-12,11-(oxycarbonyl-(1-(naphthalene-1-sulfonyl)-azetidin-3-yl)-imino)-erythromycin A] | <0.06 | <0.06 | 0.12 (≈ 0.14 µM) | <0.06 | 0.5 (≈ 0.583 µM)
11 | CCC1OC(=O)C(C)C(=O)C(C)C(OC2OC(C)CC(N(C)C)C2O)C(C)(OC)CC(C)C(=O)C(C)C2N(C3CN(S(=O)(=O)c4cccc5cccnc45)C3)C(=O)OC12C (stereo not shown) [Example 3.03, 3-descladinosyl-11,12-dideoxy-O-methyl-3-oxo-12,11-(oxycarbonyl-(1-(quinoline-8-sulfonyl)-azetidin-3-yl)-imino)-erythromycin A] | <0.06 | <0.06 | 0.12 (≈ 0.14 µM) | <0.06 | 1 (≈ 1.16 µM)
12 | CCC1OC(=O)C(C)C(=O)C(C)C(OC2OC(C)CC(N(C)C)C2O)C(C)(OC)CC(C)C(=O)C(C)C2N(C3CN(S(=O)(=O)c4cccc5cnccc45)C3)C(=O)OC12C (stereo not shown) [Example 3.04, 3-descladinosyl-11,12-dideoxy-6-O-methyl-3-oxo-12,11-(oxycarbonyl-(1-(isoquinoline-5-sulfonyl)-azetidin-3-yl)-imino)-erythromycin A] | <0.06 | <0.06 | 0.25 (≈ 0.291 µM) | <0.06 | 0.12 (≈ 0.14 µM)
13 | CCC1OC(=O)C(C)C(=O)C(C)C(OC2OC(C)CC(N(C)C)C2O)C(C)(OC)CC(C)C(=O)C(C)C2N(C3CN(S(=O)(=O)c4cccc5nonc45)C3)C(=O)OC12C (stereo not shown) [Example 3.05] | 2 (≈ 2.35 µM) | <0.06 | 0.25 (≈ 0.294 µM) | <0.06 | 16 (≈ 18.8 µM)
14 | CCC1OC(=O)C(C)C(=O)C(C)C(OC2OC(C)CC(N(C)C)C2O)C(C)(OC)CC(C)C(=O)C(C)C2N(C3CN(S(=O)(=O)c4cccc5nsnc45)C3)C(=O)OC12C (stereo not shown) [Example 3.06, 3-descladinosyl-11,12-dideoxy-6-O-methyl-3-oxo-12,11-(oxycarbonyl-(1-(benzo[1,2,5]thiadiazole-4-sulfonyl)-azetidin-3-yl)-imino)erythromycin A] | <0.06 | <0.06 | 0.12 (≈ 0.139 µM) | <0.06 | 1 (≈ 1.15 µM)
15 | CCC1OC(=O)C(C)C(=O)C(C)C(OC2OC(C)CC(N(C)C)C2O)C(C)(OC)CC(C)C(=O)C(C)C2N(C3CN(S(=O)(=O)c4ccccc4F)C3)C(=O)OC12C (stereo not shown) [Example 3.07, 2-fluorobenzenesulfonyl] | <0.06 | <0.06 | 0.5 (≈ 0.605 µM) | <0.06 | 16 (≈ 19.4 µM)
16 | CCC1OC(=O)C(C)C(=O)C(C)C(OC2OC(C)CC(N(C)C)C2O)C(C)(OC)CC(C)C(=O)C(C)C2N(C3CN(S(=O)(=O)c4cccc(F)c4)C3)C(=O)OC12C (stereo not shown) [Example 3.08, 3-fluorobenzenesulfonyl] | <0.06 | <0.06 | 0.5 (≈ 0.605 µM) | <0.06 | 16 (≈ 19.4 µM)
17 | CCC1OC(=O)C(C)C(=O)C(C)C(OC2OC(C)CC(N(C)C)C2O)C(C)(OC)CC(C)C(=O)C(C)C2N(C3CN(S(=O)(=O)c4ccc(F)cc4)C3)C(=O)OC12C (stereo not shown) [Example 3.09, 4-fluorobenzenesulfonyl] | <0.06 | 0.25 (≈ 0.303 µM) | 0.25 (≈ 0.303 µM) | <0.06 | 16 (≈ 19.4 µM)
18 | CCC1OC(=O)C(C)C(=O)C(C)C(OC2OC(C)CC(N(C)C)C2O)C(C)(OC)CC(C)C(=O)C(C)C2N(C3CN(S(=O)(=O)c4cccc(C#N)c4)C3)C(=O)OC12C (stereo not shown) [Example 3.10, 3-descladinosyl-11,12-dideoxy-6-O-methyl-3-oxo-12,11-(oxycarbonyl-(1-(3-cyanobenzenesulfonyl)-azetidin-3-yl)-imino)-erythromycin A] | <0.06 | <0.06 | 0.25 (≈ 0.3 µM) | <0.06 | 4 (≈ 4.8 µM)
19 | CCC1OC(=O)C(C)C(=O)C(C)C(OC2OC(C)CC(N(C)C)C2O)C(C)(OC)CC(C)C(=O)C(C)C2N(C3CN(S(=O)(=O)c4ccc(C#N)cc4)C3)C(=O)OC12C (stereo not shown) [Example 3.11, 3-descladinosyl-11,12-dideoxy-6-O-methyl-3-oxo-12,11-(oxycarbonyl-(1-(4-cyanobenzenesulfonyl)-azetidin-3-yl)-imino)-erythromycin A] | <0.06 | 0.5 (≈ 0.6 µM) | 0.25 (≈ 0.3 µM) | <0.06 | 8 (≈ 9.6 µM)
20 | CCC1OC(=O)C(C)C(=O)C(C)C(OC2OC(C)CC(N(C)C)C2O)C(C)(OC)CC(C)C(=O)C(C)C2N(C3CN(S(=O)(=O)c4cnn(-c5ccccc5)c4C)C3)C(=O)OC12C (stereo not shown) [Example 3.12, 5-methyl-1-phenyl-1H-pyrazole-4-sulfonyl] | 1 (≈ 1.13 µM) | <0.06 | 4 (≈ 4.5 µM) | <0.06 | 64 (≈ 72.1 µM)
